Measurements from publication PMC9775322, “An Integrated Analysis of Mechanistic Insights into Biomolecular Interactions and Molecular Dynamics of Bio-Inspired Cu(II) and Zn(II) Complexes towards DNA/BSA/SARS-CoV-2 3CL^pro by Molecular Docking-Based Virtual Screening and FRET Detection” (Biomolecules, 2022).

Tests used:
CT-DNA [1] = test: DNA thermal denaturation (biothermodynamic properties); format: binding, calf; settings: for ΔS°: (ΔH°−ΔG°)/Tm; for ΔH°: Van't Hoff equation; for Tm °C of DNA-compound adduct / Tm (K) of DNA-compound adduct: compound 50 μM : CT-DNA 50 μM (1:1), 260 nm; for Tm °C of DNA-compound adduct: CT DNA alone 68 °C; for Tm (K) of DNA-compound adduct: CT DNA alone 341 K; for ΔTm °C: melting temperature change vs DNA alone; for ΔG°: −R·Tm·ln Km
Method: The biothermodynamic properties were obtained from absorption titration by a UV–visible spectrophotometer, accomplished with a temperature-controlled sample container in both the presence and absence of the substances. In a 5 mM Tris-HCl/50 mM NaCl buffer solution with a pH of 7.4, each test substance (50 μM) was incubated with CT-DNA (50 μM) in a 1:1 ratio. The test materials were all warmed at a rate of five degrees Celsius per minute to temperatures between 25 and 100 °C, and the changes in absorbance at 260 nm were carefully monitored. […]
ɛa is represented as the apparent absorption coefficient value for the MLCT band at a specific concentration of deoxyribonucleic acid and evaluated from Abs/[complex]. ɛ f and ɛb are the absorption coefficients for the chemical substance alone and completely interacted with deoxyribonucleic acid, respectively. ∆Amax = (Amax–A0); ∆A=(Ax–A0), where A0, Ax and Amax are denoted as the optical density of chemical substances alone, the middle form, and the completely interacted form with deoxyribonucleic acid, respectively.
2.2.3. Evaluation of biothermodynamic properties
The thermal denaturation study of CT-DNA is an efficient tool for examining the stability of test compounds bound to double-stranded DNA. […]
double to single stranded DNA. The biothermodynamic parameters also involve powerful proof for binding between test compounds and DNA. The denaturation of the biomolecules depends on T m, pH and non-physiological concentrations of salt, organic solvents and other chemical agents, etc. The DNA double helix breaks into two single strands as the temperature or pH rises, which is ascribed to the breaking of hydrophobic stacking attractions and the dissolution of H-bonds between the DNA base pairs as a result of the hydroxide ions' […]
withdrawing of the hydrogen ions (H +) from DNA base pairs. It causes a hyperchromic shift […]
inversely proportional to viscosity. Low salt concentration, conversely, can also denature DNA double-strands by eliminating the ions that stabilize the negative charges on the two strands from each other. By using UV-Vis analysis in a temperature-controlled sample holder, DNA thermal denaturation was carried out both in the absence and presence of the test compounds. In 5mM Tris-HCl /50 mM NaCl buffer (pH = 7.4) solution, each test substance (50 μM) was incubated in a 1:1 ratio with CT- DNA (50 μM). All samples were heated in the range of 25 to 100 °C at a rate of 5 °C per minute and the absorbance changes at 260 nm were constantly monitored. T m of DNA alone was evaluated as the midpoint of the sigmoid’ curves plotted absorbance vs temperature profiles. The Tm is depends on the double-stranded DNA stability. Due to substantial intercalation in DNA-complex adducts, the […]
temperature. When increasing temperature, double-stranded DNA converts into two single strands at the melting point, which leads to hyperchromic effect due to reducing the base-base interaction. As compared to DNA alone at the same high temperature, the incubated DNA solution with test compounds leads to hyporchromic effect accompanied with red shift.
Strong interactions between complexes and DNA, which restrict the separation of the double helix, cause the stabilization, and as a result, T m rises. In accordance with the T m, 50% of DNA is in its native double-stranded state, and the remaining 50% is in its denaturalized single-stranded state.
ΔG° = – R.Tm. lnKm = ΔH°– Tm ΔS° (S10)
Where K1 is represented as the binding constant value at 298 K (T r), the binding constant K 2 (Km), which indicates the temperature at which substances melt their DNA (T m K), This […]
technique offers crucial data on binding constants and associated ΔG °, ΔS° and ΔH° findings for compound-deoxyribonucleic acid systems. […]
not deliver definite confirmation for the exact mode of interactions. The experiment

CT-DNA [2] = test: DNA binding by cyclic voltammetry; parameters: species or system calf; settings: for Kb, Method II: Cp/Cf vs [DNA]; for Kb, Method III: Ip^2 vs (Ipo^2 − Ip^2)/[DNA]; for Kred/Koxi (Calcd): Nernst equation, Ant.log nEs°/0.0591, n = 1; for Kred/Koxi Found (I): from method I binding constants; for Kb, Method I, Oxi / Kb, Method I, Red: log (1/[DNA]) vs log (I/I0 − I); for Kb, Method I, Oxi: oxidation; for Kb, Method I, Red: reduction; for S (binding site size): method II
Method: The CV experiment was carried out for free substances at 10 µM at room temperature with a 5 mM Tris-HCl/50 mM NaCl buffer solution (pH: 7.4). While CT-DNA increases (0–10 µM) in each sample solution, shifts in potential, including variations in the anodic and cathodic peak currents, have been monitored.
2.2.7. Evaluation of DNA interaction properties using cyclic voltammetry technique The electrochemical analysis is a critical entity to examine the electron transfer reactions of the test compounds. With a scan rate of 0.1V, the CHI 620C electrochemical analyzer was utilized with a three-electrode system consisting of glassy carbon as the working electrode, Ag/AgCl as the reference electrode, and platinum wire as the counter/auxiliary electrode to monitor changes in peak current and peak potential during the interaction between test compound and DNA. The changes in peak current and peak potential further afford data on the binding constant as well as the mode of interaction for test compound –DNA adducts. In single-compartment cells of 5 –15 mL, electrochemical titrations for all test compounds were executed at 25 °C in the absence and presence of DNA. The solutions were then deoxygenated by passing them through N 2 before measurements were made. The electrochemical analysis for free compounds was executed at a 10 µM concentration in the presence of 5mM Tr is-HCl /50 mM NaCl (pH = 7.2) buffer solution. Changes in the anodic […]
and cathodic peak currents, as well as potential shifts, have been observed as CT-DNA concentrations in each solution of complexes rise from 1 to 10 µM [32].
I ) = log [DNA] + log Kb (S24)
The peak currents of the chemical in the absence and presence of deoxyribonucleic acid are designated as I0 and I, respectively.
Kb values for all samples were estimated through the linear regression plot of log (1/[DNA]) versus log (I/I0–I) by method-I. Equation (S26) was attained from equation (S25).
Cf and Cb are represented as the free substance concentration and DNA-interacted compound, respectively, and equation (S28) was obtained by comparing equations (S26) and (S27).
Ipa is denoted as the anodic peak current in amperes, n is represented as the number of electrons participating in the redox (M 1+/M2+) process (n=1), The activation coefficient (charge transfer coefficient) is shown by the symbol α. and the value is equal to 0.5, which is a typically supported approximation for numerous quasi-reversible systems.
2.3. DFT and molecular modelling studies
DFT calculations were performed to comprehend the electronic structure and reactivity of ligand (HL) and metal complexes ( 1b-2b) using the Gaussian 09 package [ 34]. Geometries were fully optimized both in the gas phase and methanol solution using B3LYP, and comparatively later with the CAM-B3LYP and M06-2X functionals. For each complex, the […]

Candida albicans = test: Agar disc diffusion antifungal test; settings: for diameter of clear zone inhibition / Inhibition %: I; for diameter of clear zone inhibition: 20 µL of 100 µM on 6 mm disc, Control (DMSO) = 6 mm; for Inhibition %: (T–C)/T × 100

Compound	Binding Constant Kr (or) K1 @ 298 K (CT-DNA [1]) [M⁻¹]	ΔS° (CT-DNA [1]) [cal mol^−1 K^−1]	ΔH° (CT-DNA [1]) [kcal/mol]	Tm °C of DNA-compound adduct (CT-DNA [1]) [°C]	Tm (K) of DNA-compound adduct (CT-DNA [1]) [K]	ΔTm °C (CT-DNA [1]) [°C]	ΔG° (CT-DNA [1]) [kcal/mol]	Kb, Method II (CT-DNA [2]) [M⁻¹]	Kb, Method III (CT-DNA [2]) [M⁻¹]	Kred/Koxi (Calcd) (CT-DNA [2])	Kred/Koxi Found (I) (CT-DNA [2])	Kb, Method I, Oxi (CT-DNA [2]) [M⁻¹]	Kb, Method I, Red (CT-DNA [2]) [M⁻¹]	S (binding site size) (CT-DNA [2]) [bp]	diameter of clear zone inhibition (Candida albicans) [mm]	Inhibition % (Candida albicans) [%]	zone of inhibition at 100 µM (Candida albicans; read-out: diameter of clear zone inhibition) [mm]
[Cu+2].[O-]c1ccccc1N=Cc1ccc(N2CCOCC2)cc1.[O-]c1ccccc1N=Cc1ccc(N2CCOCC2)cc1.c1cnc2c(c1)ccc1cccnc12 [(1b), [Cu^II(L)2(phen)]]	20610	−7.6237	-8.1538	80.5	353.5	12.5	-5.4588	35514	21695	3.2434	1.2053	17320	20878	0.267	11	45	–
[O-]c1ccccc1N=Cc1ccc(N2CCOCC2)cc1.[O-]c1ccccc1N=Cc1ccc(N2CCOCC2)cc1.[Zn+2].c1cnc2c(c1)ccc1cccnc12 [(2b), [Zn^II(L)2(phen)]]	19930	−9.1806	-8.5979	78.5	351.5	10.5	-5.3709	32242	18300	3.7609	1.1168	14610	16317	0.248	10	40	–
Oc1ccccc1N=Cc1ccc(N2CCOCC2)cc1 [(HL), 2-(4-morpholinobenzylideneamino)phenol]	15169	−13.7851	-9.8083	74	347.0	6	-5.0249	2477	4837	2.0964	1.1125	5280	5874	0.446	–	40	10
